# pIC50: −log10 of the molar value.
# How the values were obtained:
# [1] = target: T1, p38γ (Homo sapiens, UniProt P53778); assay: Kinase selectivity, ATF2 phosphorylation ELISA; assay type: biochemical
# T1 construct: p38 MAP Kinases are recombinant human full-length proteins with an amino-terminal GST fusion; GST (N); purchased Upstate (Charlottesville, Va.); host or cells: E. coli
# T1 sequence (P53778 1-367): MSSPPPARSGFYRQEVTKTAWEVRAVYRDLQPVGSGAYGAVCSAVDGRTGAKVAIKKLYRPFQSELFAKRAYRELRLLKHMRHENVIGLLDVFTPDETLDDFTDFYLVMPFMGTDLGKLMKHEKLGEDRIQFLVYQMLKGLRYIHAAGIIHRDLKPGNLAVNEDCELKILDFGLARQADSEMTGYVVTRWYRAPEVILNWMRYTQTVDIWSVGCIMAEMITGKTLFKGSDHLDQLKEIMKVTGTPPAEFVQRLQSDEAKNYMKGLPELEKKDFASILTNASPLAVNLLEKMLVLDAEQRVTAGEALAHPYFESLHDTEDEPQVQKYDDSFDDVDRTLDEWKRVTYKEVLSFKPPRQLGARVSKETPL
# Method: (§1) All kinases and the substrate ATF2 are acquired from Upstate (Charlottesville, Va.). p38 MAP Kinases are recombinant human full-length proteins with an amino-terminal GST fusion, expressed in and purified from E. coli. ATF2 is a GST fusion protein containing amino acids 19-96 of human ATF2 expressed in E. coli. All proteins were aliquoted and stored at −80° C.
# (§2) p38 MAP Kinase assays are performed using an assay buffer containing 25 mM HEPES, pH 7.5, 10 mM MgCl2, 2 mM DTT, 20 mM β-glycerophosphate, 0.1 mM Na3VO4, 40 μM ATP and 1.25 μM of ATF2, together with 6 ng of p38α protein, 12 ng p38β protein, 1.5 ng p38γ, or 0.4 ng JNK2α2. Compounds are serially diluted in DMSO and 2 μL of test compound at 25× final concentration is used. The vehicle control receives DMSO only. Test compounds are pre-incubated with 20 μl of enzyme in kinase buffer (25 mM HEPES, pH 7.5, 10 mM MgCl2, 2 mM DTT, 20 mM 3-glycerophosphate and 0.1 mM Na3VO4) at room temperature for 15 minutes. […] The reactions are incubated for 30 minutes at 37° C. and terminated by the addition of 18 μl of 200 mM EDTA. An ELISA method is used to measure the phosphorylation of ATF2 at Thr 69. High binding 96-well plates (Corning 3369) are coated with 50 μl of kinase reaction for 1 hour at 37° C. The coated plates are washed with 200 μl washing buffer (25 mM Tris HCl, pH 8.3, 192 mM glycine, 0.1% SDS and 0.05% Tween-20) three times. The plates are then washed three times with SuperBlock in TBS (Pierce, 37535). After blocking, plates are incubated with 50 μl of rabbit anti-phospho-ATF2 antibody (Cell Signaling, 9221 L, 1:500) for 30 minutes at 37° C. Plates are washed three times with washing buffer prior to incubation with 50 μl HRP-conjugated goat anti-rabbit antibody (Cell Signaling, 7074, 1:500) for 30 minutes at 37° C. Plates are then washed three times with washing buffer before incubation with 50 μl of Ultra TMB-ELISA (Pierce, 34028) for 8 minutes at room temperature. Finally, 50 μl of phosphoric acid (1 M) is added to stop reactions and plate absorbance is read at 450 nm on a SpectraMax 250 plate reader.
# (§3) A selectivity panel is used to test the cross-reactivity of compounds of the invention with the β and γ isoforms of p38 MAP kinase, Src^p60 and JNK2α2. The p38β, p38γ, and JNK2α2 assays are described in Example 4. The Src^p60 assay measures the ability of compounds to inhibit Src^p60-catalyzed phosphorylation of a peptide substrate.
# [2] = target: T2, JNK2α2 (Homo sapiens, UniProt P45984); assay: Kinase selectivity, ATF2 phosphorylation ELISA; assay type: biochemical
# T2 construct: purchased Upstate (Charlottesville, Va.)
# T2 sequence (P45984 whole entry): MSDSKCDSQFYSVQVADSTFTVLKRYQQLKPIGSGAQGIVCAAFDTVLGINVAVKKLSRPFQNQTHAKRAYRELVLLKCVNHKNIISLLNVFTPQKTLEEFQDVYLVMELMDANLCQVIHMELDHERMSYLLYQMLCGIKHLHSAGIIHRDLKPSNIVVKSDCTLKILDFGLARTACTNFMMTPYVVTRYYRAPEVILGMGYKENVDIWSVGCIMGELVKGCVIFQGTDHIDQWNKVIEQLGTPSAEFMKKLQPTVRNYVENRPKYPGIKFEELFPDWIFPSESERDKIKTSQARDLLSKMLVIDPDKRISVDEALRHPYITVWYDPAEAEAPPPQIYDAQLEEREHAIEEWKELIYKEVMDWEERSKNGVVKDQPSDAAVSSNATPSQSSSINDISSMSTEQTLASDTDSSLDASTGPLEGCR
# Method: as §1, §2, §3
SMILES,pIC50 [1],pIC50 [2]
CS(=O)(=O)N1CCC(Nc2nccc(-c3c(-c4ccc(F)cc4)nc4occn34)n2)CC1 [CCLXXIX],< 4.00,7.63
CN1[C@@H]2CC[C@H]1C[C@@H](Nc1nccc(-c3c(-c4ccc(F)cc4)nc4occn34)n1)C2 [CCLXXXI],< 4.00,6.12
Fc1ccc(-c2nc3occn3c2-c2ccnc(N[C@@H]3CN4CCC3CC4)n2)cc1 [LXXI],< 3.28,5.80
Fc1ccc(-c2nc3occn3c2-c2ccnc(NC3CN4CCC3CC4)n2)cc1 (stereo not shown) [LXXXIV],< 4.09,5.65
Fc1ccc(-c2nc3occn3c2-c2ccnc(N[C@H]3CN4CCC3CC4)n2)cc1 [LXXXVII],4.23,5.98

# — patent US20070270418A1, “Inhibitors of P38 and Methods of Using the Same” (priority 2003, published 2007)
